From paper PMC11778240, “Synthesis and preclinical evaluation of tigilanol tiglate analogs as latency-reversing agents for the eradication of HIV” (Science Advances, 2025)
Where two headings read alike, the source gives them in different places.

Legend:
PKC-δ = biological target: T1, PKC-δ (Homo sapiens, UniProt Q05655); test: Cell-free PKC competition binding assay against 3H-PDBu; settings: for logKi (best-fit value), PKC-δ: log of Ki in nM
T1 construct: purchased Invitrogen (Sinobiological for the SUW402 experiment)
From the text: (§1) With a diverse library of compounds bearing unique functionalities on the A-, B-, and C-rings (Fig. 6), we began to explore how these modifications affect PKC binding (Fig. 7A), NF-κB activation (Fig. 7B), cell permeation and PKC translocation (Fig. 7, C and D), and latency reversal in J-Lat cells (Fig. 8). […] We conducted this assay with phosphatidyl serine vesicles in solution that mimic the cellular membrane and play a critical role in the binding of small molecules to the PKC C1 domain (Fig. 7A) ([64]).
(§2) Cell-free PKC Binding Assay
The protein kinase C (PKC) affinity of EBC-46 and EBC-46 analogs was determined via competition with 3H-phorbol-12,13-dibutyrate (3H-PDBu) as described below. This procedure entails a glass-fiber filtration method to determine bound radioligand. The method of determining the radioligand Kd is also described.
(§3) Tris HCl (Fisher, ≥ 99%, stored at room temperature)
(§4) Phosphatidylserine (Avanti Polar Lipids, porcine, 25 mg/mL CHCl3 solution, stored at - […]
(§5) Bovine serum albumin (Sigma -Aldrich, ≥ 98%, globulin free, protease free, stored at 4 […]
Human PKC-β-I-GST fusion protein (Invitrogen, aliquoted and stored at -78 °C) Human PKC-δ-GST fusion protein (Invitrogen, aliquoted and stored at -78 °C) Glass-fiber filters (Whatman GF/B)
Preparation of 3H -PDBu solution : […]
(§6) a final concentration of 500 nM.
(§7) Preparation of phosphatidylserine (PS) vesicles :
(§8) For every 96 samples, 3.5 mg phosphatidylserine (140 μL) (25 mg/mL CHCl3 solution) was concentrated by removing chloroform under reduced pressure. The phosphatidylserine residue was resuspended in freshly prepared PKC binding assay buffer (3.5 mL), capped, and then thoroughly mixed by alternating between sonicating and vortexing, in 10 second intervals for 1 minute or until a cloudy white mixture (Branson Sonifier 250, power = 2, 50% duty cycle). The resulting cloudy white mixture (1 mg/mL) was stored on ic e until use.
(§9) Preparation of the "master mix" Solution :
(§10) Constituent Stock concentration (final concentration/amount in “master mix”):
(§11) PS vesicles (0.103 mg/mL)
(§12) Deionized H2O - Final vol of 30 mL
(§13) Preparation of PKC binding assay buffer:
(§14) For every 96 samples, to a 50 mL polypropylene tube was added Tris -HCl (pH 7.4, 1 M, 1.5 mL), KCl (1 M, 3 mL), CaCl2 (0.1 M, 35 μL – conventional isoforms only), and bovine serum albumin (60 mg). This mixture was diluted to 30 mL with deionized H2O and mixed gently. The buffer was […]
(§15) Preparation of PKC isoform solution:
(§16) For every 96 samples, PKC isoform solution was prepared by dissolving a 4 μg aliquot of the indicated recombinant human PKC isoform into 26.5 mL of PKC binding assay buffer. The diluted PKC was stored on ice for immediate use.
(§17) Preparation of PKC “master mix” solution:
(§18) To the PKC-isoform solution was added 1 mg/mL PS vesicles solution (3.30 mL), and 500 nM […]
(§19) The resulting “master mix” solution was vortexed and stored on […]
(§20) Preparation of analog compound dilutions:
(§21) Compound dilutions were prepared with filtered DMSO by serially diluting from a chosen "high" concentration. For the saturation binding experiment (radioligand Kd determination), the maximum radioligand concentration used was 4.0 nM with 2-fold dilutions between data points […]
isoforms ranges from 0.3 – 0.8 nM. […]
(§22) the middle of the binding curve.
(§23) For the competition binding experiment (analog Ki determination), 7 or 14 concentrations were used to define the inhibition curve, and compounds dilutions changed by factors of 2 or √2 between data points. The concentrations were chosen such that the in-assay concentration for the data points in the middle of the binding curve were approximately equal to the IC50 of the compound (if the IC50 is unknown, an exploratory binding assay is recommended prior to Ki determination). For assays with one compound per sheet, the √2-fold dilutions were prepared for the concentrations in the middle of the curve (e.g., for SUW400, the analog dilutions used were 15000 nM, 7500 nM, […]
PKC binding assay protocol (Saturation -binding experiment and Competition -binding experiment) […]

PKC-β-I = biological target: T2, PKC-β-I (Homo sapiens, UniProt P05771); test: as above; settings: for PKC binding affinity and selectivity in words: PKC-β and PKC-δ; for logKi (best-fit value), PKC-β-I: log of Ki in nM
T2 construct: purchased Invitrogen
From the text: as §1, §2
The protein kinase C (PKC) affinity of EBC-46 and EBC-46 analogs was determined via […]
entails a glass-fiber filtration method to determine bound radioligand. The method of determining the radioligand Kd is also described.
as §3, §4, §5
Human PKC-β-I-GST fusion protein (Invitrogen, aliquoted and stored at -78 °C) Human PKC-δ-GST fusion protein (Invitrogen, aliquoted and stored at -78 °C) Glass-fiber filters (Whatman GF/B) […]
as §6, §7, §8, §9, §10, §11, §12, §13, §14, §15, §16, §17, §18, §19, §20, §21, §22
as §23, with “in” for “in the middle of the curve (e.g., for SUW400, the analog dilutions used were 15000 nM, 7500 nM,”
PKC binding assay protocol (Saturation -binding experiment and Competition -binding experiment)
1) Glass-fiber filters were prepared by soaking them in a solution of aqueous polyethyleneimine

[1] = HotNM 2.5, HotKdNM 0.62, supplement fit, read-out: Ki (best-fit value), PKC-δ
[2] = competition against radiolabeled PDBu, Fig. 7A and text, read-out: Ki PKC-δ
[3] = HotNM 2.5, HotKdNM 0.37, supplement fit, read-out: Ki (best-fit value), PKC-β-I
[4] = competition against radiolabeled PDBu, Fig. 7A and text, read-out: Ki PKC-β

T2 sequence (P05771 whole entry): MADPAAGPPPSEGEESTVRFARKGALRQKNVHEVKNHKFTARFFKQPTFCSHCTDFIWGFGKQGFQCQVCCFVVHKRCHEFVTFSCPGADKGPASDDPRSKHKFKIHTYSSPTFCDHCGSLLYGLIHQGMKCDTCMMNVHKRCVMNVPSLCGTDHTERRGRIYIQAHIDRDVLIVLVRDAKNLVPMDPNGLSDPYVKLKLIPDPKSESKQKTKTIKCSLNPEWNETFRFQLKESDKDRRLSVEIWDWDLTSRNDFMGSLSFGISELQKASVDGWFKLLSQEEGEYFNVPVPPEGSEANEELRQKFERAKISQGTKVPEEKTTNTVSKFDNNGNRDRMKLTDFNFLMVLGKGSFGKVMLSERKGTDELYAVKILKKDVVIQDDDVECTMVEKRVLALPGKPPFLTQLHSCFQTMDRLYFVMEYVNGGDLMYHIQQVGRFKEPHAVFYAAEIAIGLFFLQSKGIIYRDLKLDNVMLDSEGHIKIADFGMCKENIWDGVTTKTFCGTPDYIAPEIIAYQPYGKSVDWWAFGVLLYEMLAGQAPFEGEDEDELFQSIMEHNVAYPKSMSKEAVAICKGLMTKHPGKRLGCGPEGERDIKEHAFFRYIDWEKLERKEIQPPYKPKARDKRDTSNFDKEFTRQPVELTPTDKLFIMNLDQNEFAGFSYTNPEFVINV
T1 sequence (Q05655 whole entry): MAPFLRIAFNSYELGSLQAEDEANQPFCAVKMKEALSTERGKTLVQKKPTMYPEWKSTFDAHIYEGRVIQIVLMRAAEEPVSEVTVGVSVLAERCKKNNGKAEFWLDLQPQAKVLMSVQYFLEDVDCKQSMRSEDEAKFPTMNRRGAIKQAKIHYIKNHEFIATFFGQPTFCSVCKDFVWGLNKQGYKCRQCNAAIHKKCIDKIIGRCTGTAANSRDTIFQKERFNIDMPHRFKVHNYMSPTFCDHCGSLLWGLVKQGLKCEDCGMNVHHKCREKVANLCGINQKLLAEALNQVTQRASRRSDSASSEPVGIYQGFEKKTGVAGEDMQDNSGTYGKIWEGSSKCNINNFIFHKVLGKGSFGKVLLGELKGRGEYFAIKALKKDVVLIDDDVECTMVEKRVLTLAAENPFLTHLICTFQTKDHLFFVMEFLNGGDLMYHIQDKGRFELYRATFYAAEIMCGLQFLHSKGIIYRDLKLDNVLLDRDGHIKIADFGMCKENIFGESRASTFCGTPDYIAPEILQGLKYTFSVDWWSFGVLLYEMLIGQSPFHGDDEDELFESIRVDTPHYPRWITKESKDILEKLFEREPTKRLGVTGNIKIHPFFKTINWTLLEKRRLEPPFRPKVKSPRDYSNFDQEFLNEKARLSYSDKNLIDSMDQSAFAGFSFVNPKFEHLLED

| Structure (SMILES) | weaker binding affinity for PKC-δ than EBC-46 (PKC-δ) | Ki (PKC-δ; [1]) [nM] | Ki (PKC-δ; [2]) [nM] | logKi (best-fit value), PKC-δ (PKC-δ; HotNM 2.5, HotKdNM 0.62) | selectivity for PKC-β over PKC-δ (PKC-β-I) [fold] | PKC-β selectivity (PKC-β-I; Fig. 7A, PKC-β over PKC-δ) | Ki (PKC-β-I; [3]) [nM] | PKC binding affinity and selectivity in words (PKC-β-I) | Ki (PKC-β-I; [4]) [nM] | logKi (best-fit value), PKC-β-I (PKC-β-I; HotNM 2.5, HotKdNM 0.37) | stronger binding for PKC-δ compared to EBC-46 (PKC-δ) [fold] | greater affinity to PKC-δ than that reported for SUW013 (PKC-δ; comparison with literature value) | Ki (PKC-δ; read-out: binding for PKC-δ (Ki)) [nM] | stronger binding for PKC-β compared to EBC-46 (PKC-β-I) | Ki (PKC-β-I; read-out: binding for PKC-β (Ki)) [nM] |
| --- | --- | --- | --- | --- | --- | --- | --- | --- | --- | --- | --- | --- | --- | --- | --- |
| C/C=C(\C)C(=O)O[C@@H]1[C@@H](C)[C@@]2(O)[C@H]([C@@H]3C(C)(C)[C@]13OC(=O)c1ccccc1)[C@@H]1O[C@]1(CO)[C@@H](O)[C@]1(O)C(=O)C(C)=C[C@H]12 [SUW428] | ~ 20 × | 64.2 | 64 | 1.808 | > 12 | 12.5 | 5.12 | approximately three times lower affinity for PKC-β compared to EBC-46 | 5.1 | 0.7091 |  |  |  |  |  |
| CC[C@H](C)C(=O)O[C@@]12[C@H](OC(C)(C)C)[C@@H](C)[C@@]3(O)[C@H]([C@@H]1C2(C)C)[C@@H]1O[C@]1(CO)[C@@H](O)[C@]1(O)C(=O)C(C)=C[C@H]13 [SUW430] | ~ 20 × | 59.7 | 60 | 1.776 | 40 |  | 1.47 |  | 1.5 | 0.1684 |  |  |  |  |  |
| C/C=C(\C)C(=O)O[C@@H]1[C@@H](C)[C@@]2(O)[C@H]([C@@H]3C(C)(C)[C@]13OC(=O)Cc1cccc3ccccc13)[C@@H]1O[C@]1(CO)[C@@H](O)[C@]1(O)C(=O)C(C)=C[C@H]12 [SUW431] |  | 0.114 |  | -0.9424 | 1.4 |  | 0.079 | remarkable affinities in the picomolar range |  | -1.102 | 30 | approximately 10 fold | 0.11 | ~ 20 fold | 0.079 |
